Tests used:
[1] = Solubilization of particles from oxidative PS20 degradation (HIAC); format: physicochemical; settings: 5% and 15% (w/v) HP-β-CD; 0.02% (w/v) PS20 stored 27 months at 5° C.
Description: (§1) Subvisible particles were measured using a HIAC 9703 particle counter equipped with an HRDL-150 detector and a 1 mL syringe. Performance of the instrument was verified with NIST-traceable 2 μm Polystyrene bead standards at 3000 counts/mL before each measurement session. The HIAC instrument was configured to a 10 mL/min flow rate, 0.1 mL tare volume, and 0.4 mL sample volume. The samples were analyzed using 4 runs of 0.4 mL sips, with the first run of each sample was discarded to prevent measurement error due to sample carryover. Results were reported as the average values for 1.4, 2, 5, 10, 15, and 25, 50 μm analysis filter sizes.
Different concentrations of HP-β-CD were tested for their ability to solubilize particles produced as a result of oxidative PS20 degradation. Solutions of concentrated HP-β-CD were prepared in triplicate in pH 5.5 buffer. Protein-free samples containing 0.02% (w/v) PS20 were stored for 27 months at 5° C., resulting in oxidative PS20 degradation and the formation of visible and subvisible particles related to PS20 degradation products. Each degraded PS20 solution was divided into 3 aliquots and concentrated excipient was spiked into each the aliquots. […] The following day, subvisible particle counts were measured using a HIAC 9703 particle counter.

Lipoprotein Lipase (LPL) = assay: Enzymatic degradation of PS20 by LPL, PS20 by RP-ELSD; format: biochemical, Burkholderia sp.; settings: 15% w/v HP-β-CD; 0.02% PS20, pH 5.5; 70 μg/mL LPL, 5 hours, room temperature
Description: (§2) Polysorbate concentration was determined using reverse phase ultra-performance liquid chromatography using evaporative light scattering detection (RP-ELSD). Samples were analyzed using an Agilent 1100 series high performance liquid chromatography system (HPLC) fitted with a Waters Oasis MAX cartridge column (20×2.1 mm, 30 μm particle size). The HPLC system was set up with a switching valve directing column flow-through to either waste or a Varian 380-LC evaporative light scattering detector set to 100° C. The mobile phases consisted of 2% formic acid in water (Pump A) and 2% formic acid in isopropanol (Pump B). […] In order to quantitate the PS20 concentration, a standard curve was generated by injecting 20 μL of solutions containing between 0% w/v and 0.4% w/v PS20. For excipients which affected the migration time of PS20 through the column, PS20 standard curve solutions containing the relevant excipient were included in the analysis to facilitate accurate quantitation.
The effect of 15% HP-β-CD on the enzymatic degradation of PS20 was measured. […]
PPL digestion was stopped by heat inactivation in an 85° C. water bath for 30 minutes. LPL and RLE digestion could not be stopped by heat inactivation, so the samples were analyzed immediately for PS20 content. […]

[2] = molecular target: T1, porcine pancreatic lipase (PPL) (Sus scrofa, UniProt P00591); assay: Enzymatic degradation of PS80 by PPL (RP-ELSD, HIAC); format: biochemical
T1 construct: purchased Sigma Aldrich Inc. (St. Louis, Mo.)
T1 sequence (P00591 1-450): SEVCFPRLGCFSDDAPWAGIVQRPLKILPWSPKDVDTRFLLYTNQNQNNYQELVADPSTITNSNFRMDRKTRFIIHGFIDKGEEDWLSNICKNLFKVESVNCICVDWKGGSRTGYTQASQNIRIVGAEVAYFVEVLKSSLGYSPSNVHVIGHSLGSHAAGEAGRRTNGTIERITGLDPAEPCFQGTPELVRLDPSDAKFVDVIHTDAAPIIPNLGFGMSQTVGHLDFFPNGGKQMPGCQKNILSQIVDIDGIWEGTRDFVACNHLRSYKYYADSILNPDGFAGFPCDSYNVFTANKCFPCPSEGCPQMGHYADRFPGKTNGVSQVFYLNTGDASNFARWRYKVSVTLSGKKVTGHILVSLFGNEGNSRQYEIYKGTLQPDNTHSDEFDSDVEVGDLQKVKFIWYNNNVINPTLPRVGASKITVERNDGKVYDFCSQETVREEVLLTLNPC
Description: as §1
as §2, with “size).” for “size). The HPLC system was set up with a switching valve directing column flow-through to either waste or a Varian 380-LC evaporative light scattering detector set to 100° C. The mobile phases consisted of 2% formic acid in water (Pump A) and 2% formic acid in isopropanol (Pump B).”, “quantitation. […]” for “quantitation.”

[3] = molecular target: T1, porcine pancreatic lipase (PPL); assay: Kinetics of enzymatic PS20 degradation by PPL; format: biochemical; settings: 15% sucrose; 0.02% (w/v) PS20; 15 μg/mL PPL, about 25° C., 180 hours
Description: as §2, with “B). The pump gradient was isocratic at 10% pump B during equilibration, linear to 20% pump B for 1 minute, isocratic at 20% pump B for 2.4 minutes, linear to 100% pump B for 0.1 minutes, isocratic at 100% pump B for 1.1 minutes, linear to 10% pump B for 0.1 minutes, and finally isocratic at 10% pump B for 1.9 minutes.” for “B).”, “quantitation. […]” for “quantitation.”

Compound	SVP relative to control sample (0% HP-β-CD) [1]	Polysorbate 20 (Relative %) (Lipoprotein Lipase (LPL)) [%]	subvisible particulates (SVP/mL) after PPL degradation of PS80 ([2]; 15% (w/v) HP-β-CD vs 0%, ≥1.4 to ≥25 micron, HIAC)	decrease in PS80 ([2]; 15% (w/v) HP-β-CD, 0.02% (w/v) PS80, pH 5.5, 15 μg/mL PPL, 5 hours, room temperature)	plateau of PS20 degradation curve [3] [%]
2-hydroxypropyl-β-cyclodextrin [HP-β-CD]	significant reduction in SVP	77.5	fewer SVP/mL	approximately 4%	–
OC[C@H]1O[C@@](CO)(O[C@H]2O[C@H](CO)[C@@H](O)[C@H](O)[C@H]2O)[C@@H](O)[C@@H]1O [sucrose, reference compound]	–	–	–	–	44

Source: patent US10933141B2, “Formulations with reduced degradation of polysorbate” (Genentech, Inc., priority 2015, dated 2021)
